# Test results as given in PMC10892041, “Vanadium Complexes with Thioanilide Derivatives of Amino Acids: Inhibition of Human Phosphatases and Specificity in Various Cell Models of Metabolic Disturbances” (Pharmaceuticals, 2024).
# Where two headings read alike, the source gives them in different places.
# Legend:
# SHP2 = target: T1, SHP2 (Homo sapiens, UniProt Q06124); test: Inhibition of human recombinant tyrosine phosphatase SHP2 (DiFMUP fluorescence); type: biochemical
# T1 construct: purchased Sigma-Aldrich
# T1 sequence (Q06124 1-593): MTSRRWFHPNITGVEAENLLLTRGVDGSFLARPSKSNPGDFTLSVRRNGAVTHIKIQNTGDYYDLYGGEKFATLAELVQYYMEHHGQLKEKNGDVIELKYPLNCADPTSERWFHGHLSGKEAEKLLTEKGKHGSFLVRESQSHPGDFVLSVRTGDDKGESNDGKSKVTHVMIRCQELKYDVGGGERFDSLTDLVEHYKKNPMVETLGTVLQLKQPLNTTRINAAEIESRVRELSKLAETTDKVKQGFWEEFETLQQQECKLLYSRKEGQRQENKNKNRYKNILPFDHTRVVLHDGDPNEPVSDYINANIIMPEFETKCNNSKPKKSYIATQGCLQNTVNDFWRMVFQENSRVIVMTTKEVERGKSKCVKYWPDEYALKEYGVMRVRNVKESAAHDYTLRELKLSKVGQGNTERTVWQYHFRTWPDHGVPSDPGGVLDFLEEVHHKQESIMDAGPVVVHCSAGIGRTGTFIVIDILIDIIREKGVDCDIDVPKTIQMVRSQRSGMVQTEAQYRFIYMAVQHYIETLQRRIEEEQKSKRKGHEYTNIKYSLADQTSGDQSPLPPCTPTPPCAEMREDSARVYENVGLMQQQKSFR
# Procedure: (§1) To determine the ability of the tested compounds for inhibition tyrosine phosphatases, human recombinant proteins were used (Sigma-Aldrich). The reactions were performed in black opaque 384-well microplates (PerkinElmer, Waltham, MA, USA). An equal volume of phosphatase solution in a reaction buffer (25 mM of 3-(N-morpholino)propanesulfonic acid (MOPS), 50 mM NaCl, 1 mM dithiothreitol (DTT), and 0.05% Tween-20 (pH 7.0)) was added to the solution of the tested compound on microplate. These solutions were dispensed using an automated injector. The following final concentrations of the tested phosphatases were used: PTP1B 50 ng/mL, SHP1 400 ng/mL, SHP2 50 ng/mL, LAR 5 ng/mL, and PTPRA 100 ng/mL. After 10 min, a solution of phosphate 6,8-difluoro-4-methyl (DiFMUP; Thermo Fisher Scientific) was added until its final concentration was 0.1 mM. Samples were incubated for 20 miN at 23 °C, and then the measurements of fluorescence intensity (excitation 355 and emission […]) were performed on a multifunctional plate reader POLARstar Omega (BMG Labtech, Ortenberg, Germany). Assays were performed in triplicate. For the screening assays, the final concentration of the tested compounds was 1 µM. The results were expressed as percent inhibition of untreated control (enzyme with vehicle only) for the screening tests. […] IC50 were calculated using GraphPad Prism version 6.0 software (GraphPad Software, Boston, MA, USA).
# SHP1 = target: T2, SHP1 (Homo sapiens, UniProt P29350); test: Inhibition of human recombinant tyrosine phosphatase SHP1 (DiFMUP fluorescence); type: biochemical; conditions: for Log IC50 ± SD SHP1: logarithm of IC50
# T2 construct: purchased Sigma-Aldrich
# T2 sequence (P29350 whole entry): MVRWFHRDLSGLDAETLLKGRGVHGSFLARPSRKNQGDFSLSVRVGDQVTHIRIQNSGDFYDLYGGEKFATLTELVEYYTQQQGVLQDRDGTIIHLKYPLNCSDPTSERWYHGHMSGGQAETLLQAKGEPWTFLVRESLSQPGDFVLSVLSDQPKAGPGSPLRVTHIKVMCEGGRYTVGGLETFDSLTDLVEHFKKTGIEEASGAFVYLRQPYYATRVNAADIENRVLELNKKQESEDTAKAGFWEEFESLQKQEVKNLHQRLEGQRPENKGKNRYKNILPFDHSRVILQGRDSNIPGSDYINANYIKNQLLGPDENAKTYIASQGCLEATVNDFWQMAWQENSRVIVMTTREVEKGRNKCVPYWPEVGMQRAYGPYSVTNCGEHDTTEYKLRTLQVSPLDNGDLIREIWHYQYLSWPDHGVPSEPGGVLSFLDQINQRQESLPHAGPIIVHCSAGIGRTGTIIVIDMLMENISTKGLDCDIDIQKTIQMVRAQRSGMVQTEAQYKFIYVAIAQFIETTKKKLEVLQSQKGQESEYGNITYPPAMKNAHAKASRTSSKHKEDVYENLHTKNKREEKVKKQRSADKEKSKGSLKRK
# Procedure: as §1
# LAR = target: T3, LAR (Homo sapiens, UniProt P10586); test: Inhibition of human recombinant tyrosine phosphatase LAR (DiFMUP fluorescence); type: biochemical
# T3 sequence (P10586 1352-1607 limits assumed): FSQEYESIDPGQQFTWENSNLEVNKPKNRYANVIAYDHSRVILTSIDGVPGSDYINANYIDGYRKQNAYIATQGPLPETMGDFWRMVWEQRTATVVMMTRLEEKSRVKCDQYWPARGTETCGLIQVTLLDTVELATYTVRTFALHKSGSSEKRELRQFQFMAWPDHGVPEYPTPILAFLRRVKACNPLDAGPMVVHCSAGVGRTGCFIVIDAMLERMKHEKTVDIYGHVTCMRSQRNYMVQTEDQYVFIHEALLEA
# Procedure: as §1
# PTP1B = target: T4, PTP1B (Homo sapiens, UniProt P18031); test: Inhibition of human recombinant tyrosine phosphatase PTP1B (DiFMUP fluorescence); type: biochemical; conditions: for Inhibition of PTP1B, percentage of inhibition of the control: 1 µM, control solvent only, SD did not exceed 6%; for Log IC50 ± SD PTP1B: logarithm of IC50
# T4 construct: purchased Sigma-Aldrich
# T4 sequence (P18031 1-435): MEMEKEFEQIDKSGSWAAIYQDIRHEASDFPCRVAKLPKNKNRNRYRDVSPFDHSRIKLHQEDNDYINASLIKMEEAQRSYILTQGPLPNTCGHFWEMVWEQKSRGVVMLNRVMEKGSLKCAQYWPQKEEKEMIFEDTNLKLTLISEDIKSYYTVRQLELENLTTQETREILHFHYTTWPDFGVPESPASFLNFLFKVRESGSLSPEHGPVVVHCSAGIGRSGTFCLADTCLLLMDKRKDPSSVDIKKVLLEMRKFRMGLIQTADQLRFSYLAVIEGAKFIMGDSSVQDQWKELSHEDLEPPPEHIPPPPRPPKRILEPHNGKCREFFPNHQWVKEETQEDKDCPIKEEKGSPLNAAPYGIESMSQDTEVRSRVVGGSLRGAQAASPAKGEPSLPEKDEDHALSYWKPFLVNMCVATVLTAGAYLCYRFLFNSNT
# Procedure: as §1
# CDC25A = target: T5, CDC25A (Homo sapiens, UniProt P30304); test: Inhibition of human recombinant non-tyrosine phosphatase CDC25A (3-O-methylfluorescein phosphate); type: biochemical
# T5 construct: purchased Sigma-Aldrich
# T5 sequence (P30304 1-524): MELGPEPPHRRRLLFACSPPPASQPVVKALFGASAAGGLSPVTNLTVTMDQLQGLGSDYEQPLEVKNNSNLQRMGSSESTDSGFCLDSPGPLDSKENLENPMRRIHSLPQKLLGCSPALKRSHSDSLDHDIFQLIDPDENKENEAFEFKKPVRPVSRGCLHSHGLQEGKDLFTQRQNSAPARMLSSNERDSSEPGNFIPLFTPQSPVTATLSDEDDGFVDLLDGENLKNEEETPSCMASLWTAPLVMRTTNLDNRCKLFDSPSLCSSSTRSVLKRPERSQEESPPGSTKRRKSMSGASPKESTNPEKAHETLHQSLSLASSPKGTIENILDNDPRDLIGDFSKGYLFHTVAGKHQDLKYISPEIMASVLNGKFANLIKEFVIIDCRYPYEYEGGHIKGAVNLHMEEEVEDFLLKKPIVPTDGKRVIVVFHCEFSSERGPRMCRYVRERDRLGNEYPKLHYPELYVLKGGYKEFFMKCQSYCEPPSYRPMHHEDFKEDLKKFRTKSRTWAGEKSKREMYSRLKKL
# Procedure: (§2) For the inhibition assay of non-tyrosine phosphatases, human recombinant proteins were used (Sigma-Aldrich). The reactions were performed in black opaque 384-well microplates (PerkinElmer). To the solution of the tested complexes, an equal volume of a test solution of phosphatase was added. CDC25A were diluted in reaction buffer to the final concentration of 400 ng/mL as for tyrosine phosphatases (described in the section above), and PPA2 (final 0.5 U/mL) was diluted in 50 mM Tris-HCl, 0.05% Tween-20, and 125 µg/mL protease-free bovine serum albumin (pH 7.0). These solutions were dispensed using an automated injector. After 10 min, a solution of phosphate 6,8-difluoro-4-methyl (DiFMUP; Thermo Fisher Scientific) was added for the PPA2 sample until the final concentration 0.1 mM. For CDC25A samples, 3-O-methylfluorescein phosphate for the final concentration of 0.2 mM was added. Samples were incubated for 180 min at 23 °C, and then the measurements of fluorescence intensity (excitation 355 and emission 560 nm) were performed on a multifunctional plate reader POLARstar Omega (BMG Labtech). Assays were performed in triplicate. The results were expressed as percent of inhibition of untreated control (enzyme with vehicle solvent only).
# PP2A = PP2A (Homo sapiens, UniProt P67775); test: Inhibition of human recombinant non-tyrosine phosphatase PP2A (DiFMUP); type: biochemical
# Chain of PP2A (P67775 whole entry): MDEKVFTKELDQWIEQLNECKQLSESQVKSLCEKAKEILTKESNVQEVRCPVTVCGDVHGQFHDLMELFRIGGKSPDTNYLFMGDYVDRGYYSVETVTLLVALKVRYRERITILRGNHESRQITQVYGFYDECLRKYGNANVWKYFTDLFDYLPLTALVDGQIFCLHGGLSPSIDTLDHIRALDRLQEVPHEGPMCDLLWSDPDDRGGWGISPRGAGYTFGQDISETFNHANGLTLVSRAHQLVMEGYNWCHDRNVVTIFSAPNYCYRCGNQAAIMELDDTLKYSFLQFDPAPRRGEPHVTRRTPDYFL
# Procedure: as §2
# myocytes C2C12 = test: Viability of myocytes C2C12 after 24 h incubation (resazurin-based reagent); conditions: 50 µM
# Procedure: Simultaneously with glucose consumption tests, the viability of myocytes C2C12 was examined due to their prolonged 24 h incubation with vanadium complexes.
# Prolonged incubation of the cells with vanadium complexes, as was the case during the study of the effect on glucose consumption, more closely corresponds to the actual conditions of clinical use, also allowing for the identification of possible cytotoxic effects. […] A Resazurin-based reagent is reduced proportionally to the metabolic activity of cells as a result of the transference of electrons from NADPH+H^+, the amount of which strictly depends on glucose metabolism.
# [1] = 1 µM, control solvent only, SD did not exceed 6%
"Inhibition of SHP2, percentage of inhibition of the control (SHP2; [1]) [%]","Inhibition of SHP1, percentage of inhibition of the control (SHP1; [1]) [%]",Log IC50 ± SD SHP1 (SHP1),IC50 (LAR) [nM],"Inhibition of LAR, percentage of inhibition of the control (LAR; [1]) [%]","Inhibition of PTP1B, percentage of inhibition of the control (PTP1B) [%]",Log IC50 ± SD PTP1B (PTP1B),IC50 (PTP1B; read-out: IC50 PTP1B) [nM],"Inhibition of CDC25A, percentage inhibition of control ± SD (CDC25A; 1 µM) [%]","Inhibition of CDC25A, percentage inhibition of control ± SD (CDC25A; 10 µM) [%]","Inhibition of PP2A, percentage inhibition of control ± SD (PP2A; 1 µM) [%]","Inhibition of PP2A, percentage inhibition of control ± SD (PP2A; 10 µM) [%]",Compound,further results
57,53,−6.18 ± 0.03,1710,19,25,−5.37 ± 0.03,4260,12 ± 8,38 ± 1,24 ± 3,51 ± 4,"[O]=[V]1[O]C(c2ccc(Cl)cc2)=NN=Cc2cc(Br)ccc2[O]1.c1cnc2c(c1)ccc1cccnc12 [VC050, [VO(L11)(phen)]]",IC50 (SHP2): 273 nM; IC50 (SHP1): 657 nM
47,40,−7.59 ± 0.13,38,28,33,−7.24 ± 0.06,58,34 ± 1,51 ± 1,18 ± 2,53 ± 3,"ammonium heptamolybdate [(NH4)6Mo7O24, reference compound]",IC50 (SHP2): 26 nM; Log IC50 ± SD SHP2 (SHP2; logarithm of IC50): −7.58 ± 0.04; IC50 (SHP1): 26 nM; Log IC50 ± SD LAR (LAR; logarithm of IC50): −7.42 ± 0.04
87,84,−7.56 ± 0.02,112,67,78,−6.85 ± 0.01,141,51 ± 2,65 ± 3,41 ± 15,75 ± 7,"CC(CC(=S)Nc1ccccc1)=NC(Cc1c[nH]c2ccccc12)C(=O)[O][V](=[O])([Cl])[Cl] (stereo not shown) [VC054, [VOCl2(L1)]·1.5Et2O ·6.5HCl]","Cell viability of myocytes C2C12, % of the control (myocytes C2C12): 84 ± 8%; IC50 (PTP1B; read-out: IC50 for PTP1B): 140 nM"
83,80,,,56,70,,,,,,,"CCC(C)C(N=C(C)CC(=S)Nc1ccccc1)C(=O)[O][V](=[O])([Cl])[Cl] (racemic) [VC109, [VOCl2(L5)]·3HCl]",
64,62,,,35,36,,,,,,,"CC(C)(C)c1ccc(C2=NN=Cc3cc(Br)ccc3[O][V](=[O])[O]2)cc1.O.c1cnc2c(c1)ccc1cccnc12 [VC048, [VO(L10)(phen)]⋅0.5H2O]",
66,62,,,37,34,,,,,,,"O.[O]=[V]1[O]C(c2ccc(O)cc2)=NN=Cc2cc(Br)ccc2[O]1.c1cnc2c(c1)ccc1cccnc12 [VC046, [VO(L9)(phen)]⋅2H2O]",
,,,,,,,,,,,,"Cc1ccc(C(=O)Nc2ccc(S(=O)(=O)O)c3cc(S(=O)(=O)O)cc(S(=O)(=O)O)c23)cc1NC(=O)c1cccc(NC(=O)Nc2cccc(C(=O)Nc3cc(C(=O)Nc4ccc(S(=O)(=O)O)c5cc(S(=O)(=O)O)cc(S(=O)(=O)O)c45)ccc3C)c2)c1 [Suramin, reference compound]","inhibition at 1 µM (SHP2; 1 µM, control solvent only, SD did not exceed 6%, read-out: Inhibition of SHP2, percentage of inhibition of the control): 10%; inhibition at 1 µM (SHP1; 1 µM, control solvent only, SD did not exceed 6%, read-out: Inhibition of SHP1, percentage of inhibition of the control): 17%; inhibition at 1 µM (LAR; 1 µM, control solvent only, SD did not exceed 6%, read-out: Inhibition of LAR, percentage of inhibition of the control): 9%; inhibition at 1 µM (PTP1B; read-out: Inhibition of PTP1B, percentage of inhibition of the control): 7%"

Compound,"Inhibition of SHP2, percentage of inhibition of the control (SHP2; [1]) [%]","Inhibition of SHP1, percentage of inhibition of the control (SHP1; [1]) [%]",Log IC50 ± SD SHP1 (SHP1),IC50 (LAR) [nM],"Inhibition of LAR, percentage of inhibition of the control (LAR; [1]) [%]","Inhibition of PTP1B, percentage of inhibition of the control (PTP1B) [%]",Log IC50 ± SD PTP1B (PTP1B),IC50 (PTP1B; read-out: IC50 PTP1B) [nM],"Inhibition of CDC25A, percentage inhibition of control ± SD (CDC25A; 1 µM) [%]","Inhibition of CDC25A, percentage inhibition of control ± SD (CDC25A; 10 µM) [%]","Inhibition of PP2A, percentage inhibition of control ± SD (PP2A; 1 µM) [%]","Inhibition of PP2A, percentage inhibition of control ± SD (PP2A; 10 µM) [%]",further results
"C1CCOC1.CSCCC1C(=O)[O][V](=[O])([Cl])([Cl])[N]1C(C)=CC(=S)Nc1ccccc1.Cl (stereo not shown) [VC073, [VOCl2(L4)]·1.5THF·3HCl]",86,82,,,63,74,,,,,,,
